Measurements taken from ChEMBL document CHEMBL1201862, “PubChem BioAssay data set” (2004).
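96-well plates; 48 h exposure; 5 concentrations. Endpoints by linear interpolation between flanking doses. Not reached: highest tested concentration assigned. GI50 = concentration required for 50% inhibition of growth.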 Calls of active or inactive are those of the source. Cut-off read from the data, not from the text of the source: active = GI50 up to about 1.1 µM and inactive = higher.

What was measured:
Experiment in all cases: NCI tumour cell line growth inhibition, 48 h
ACHN = test system: ACHN
SR = test system: SR
M14 = test system: M14
KM-20L2 = test system: KM-20L2
TK-10 = test system: TK-10
NCI-H522 = test system: NCI-H522
A498 = test system: A498
SF-539 = test system: SF-539
HOP-92 = test system: HOP-92
RXF 393 = test system: RXF 393
SNB-75 = test system: SNB-75
NCI/ADR-RES = test system: NCI/ADR-RES
MCF7 = test system: MCF7
BT-549 = test system: BT-549
MDA-MB-231 = test system: MDA-MB-231
PC-3 = test system: PC-3
DU-145 = test system: DU-145
Hs-578T = test system: Hs-578T
MDA-N = test system: MDA-N
T47D = test system: T47D

SMILES | GI50 (ACHN) | GI50 (SR) | GI50 (M14) | GI50 (KM-20L2) | GI50 (TK-10) | GI50 (NCI-H522) | GI50 (A498) | GI50 (SF-539) | GI50 (HOP-92) | GI50 (RXF 393) | GI50 (SNB-75) | GI50 (NCI/ADR-RES) | GI50 (MCF7) | GI50 (BT-549) | GI50 (MDA-MB-231) | GI50 (PC-3) | GI50 (DU-145) | GI50 (Hs-578T) | GI50 (MDA-N) | GI50 (T47D)
O=C1C2Cc3ccccc3CN2C(=O)N1CN1CCCCC1 (stereo not given) | > 100 µM (inactive) | 97.5 µM (inactive) | > 100 µM (inactive) | > 100 µM (inactive) | > 100 µM (inactive) | > 100 µM (inactive) | > 100 µM (inactive) | > 100 µM (inactive) | – | – | – | – | – | – | – | – | – | – | – | –
COc1cc(/C=C/C2=C(C#N)C(=O)OC2(C)C)ccc1O | 34.2 µM (inactive) | 14.2 µM (inactive) | – | 58.5 µM (inactive) | > 100 µM (inactive) | 16.7 µM (inactive) | > 100 µM (inactive) | – | > 100 µM (inactive) | 36.9 µM (inactive) | 82.8 µM (inactive) | – | – | – | – | – | – | – | – | –
COC(=O)C1CCC(=O)N1/C(C)=N/NC(=O)Nc1ccc(Cl)c(Cl)c1 (stereo not given) | 21 µM (inactive) | > 100 µM (inactive) | > 100 µM (inactive) | 32.2 µM (inactive) | 88.1 µM (inactive) | – | > 100 µM (inactive) | > 100 µM (inactive) | > 100 µM (inactive) | > 100 µM (inactive) | 65.3 µM (inactive) | – | – | – | – | – | – | – | – | –
CSc1nc2c(ncn2C2OCC(O)C(O)C2O)c(=O)n1C (stereo not given) | – | – | – | > 100 µM (inactive) | – | > 100 µM (inactive) | > 100 µM (inactive) | > 100 µM (inactive) | > 100 µM (inactive) | > 100 µM (inactive) | 73.6 µM (inactive) | > 100 µM (inactive) | > 100 µM (inactive) | – | – | – | – | – | – | –
C=C/C(C)=C/[C@H](C)C(=O)C[C@H](O)CC1CC(=O)NC(=O)C1 | – | – | – | 19.2 µM (inactive) | – | 21.2 µM (inactive) | 30.9 µM (inactive) | 35.1 µM (inactive) | 21.7 µM (inactive) | 38.5 µM (inactive) | > 55.8 µM (inactive) | 57.4 µM (inactive) | 27.5 µM (inactive) | – | – | – | – | – | – | –
NC(=O)C1(c2ccccc2)Nc2ccccc2S1 (stereo not given) | > 100 µM (inactive) | > 100 µM (inactive) | > 100 µM (inactive) | > 100 µM (inactive) | > 100 µM (inactive) | > 100 µM (inactive) | – | > 100 µM (inactive) | – | > 100 µM (inactive) | – | – | – | – | – | – | – | – | – | –
COc1ccc2cc1Oc1ccc(cc1)C[C@H]1c3cc(c(OC)cc3CCN1C)Oc1c(O)c(OC)cc3c1[C@H](C2)N(C)CC3 [FANGCHINOLINE] | – | – | – | 1.7 µM (inactive) | – | 27.5 µM (inactive) | 18 µM (inactive) | 20.3 µM (inactive) | 7.64 µM (inactive) | 16.5 µM (inactive) | 28.7 µM (inactive) | 29.4 µM (inactive) | 26.6 µM (inactive) | – | – | – | – | – | – | –
N#C/C(=C\c1cccc(O)c1O)C(N)=O | 26.6 µM (inactive) | – | 67.1 µM (inactive) | 52.5 µM (inactive) | 42.1 µM (inactive) | 21 µM (inactive) | 74.3 µM (inactive) | 34 µM (inactive) | 41.3 µM (inactive) | 3.22 µM (inactive) | 9.57 µM (inactive) | – | – | – | – | – | – | – | – | –
CN(C(=O)c1ccc(OCCCC(=O)O)c(Cl)c1Cl)C1CCCC1 | – | – | – | > 100 µM (inactive) | – | 42.6 µM (inactive) | > 89.5 µM (inactive) | > 100 µM (inactive) | 45.3 µM (inactive) | > 71.1 µM (inactive) | 80.4 µM (inactive) | > 100 µM (inactive) | > 100 µM (inactive) | – | – | – | – | – | – | –
CCOC(=O)c1ccc(N[C@@H]2c3cc4c(cc3C(c3cc(OC)c(O)c(OC)c3)[C@H]3C(=O)OCC32)OCO4)cc1 (stereo not given in full) | 0.131 µM (active) | 0.0474 µM (active) | 0.679 µM (active) | 0.713 µM (active) | – | – | 0.244 µM (active) | 0.421 µM (active) | 1.1 µM (active) | – | 1.21 µM (inactive) | 1.42 µM (inactive) | 0.105 µM (active) | 1.64 µM (inactive) | 1.67 µM (inactive) | 1.61 µM (inactive) | 0.258 µM (active) | – | – | –
CCCCOP1(=O)C=CC(Cl)=C(C)C1 (stereo not given) | 19 µM (inactive) | 15.3 µM (inactive) | 33.3 µM (inactive) | 22.8 µM (inactive) | 36.6 µM (inactive) | > 10 µM (inactive) | – | 18.5 µM (inactive) | 23.2 µM (inactive) | – | 23.3 µM (inactive) | – | – | – | – | – | – | – | – | –
O=c1cnn(C2OC(CO)C(O)C2O)c(=S)[nH]1 (stereo not given) | – | 1.02 µM (active) | > 100 µM (inactive) | 28.9 µM (inactive) | > 100 µM (inactive) | 16.4 µM (inactive) | > 100 µM (inactive) | 66.5 µM (inactive) | > 100 µM (inactive) | > 100 µM (inactive) | > 100 µM (inactive) | > 79.3 µM (inactive) | 10.6 µM (inactive) | > 100 µM (inactive) | > 100 µM (inactive) | 8.73 µM (inactive) | 9.4 µM (inactive) | > 100 µM (inactive) | > 100 µM (inactive) | > 100 µM (inactive)
COC(=O)C1=COC2OC3/C(=C\c4ccc(O)c(OC)c4)C(=O)OC34C=CC1C24 (stereo not given) | 15.1 µM (inactive) | 28.8 µM (inactive) | 3.37 µM (inactive) | 17.8 µM (inactive) | 17.3 µM (inactive) | 15.2 µM (inactive) | 27.7 µM (inactive) | 17.4 µM (inactive) | 22.5 µM (inactive) | – | 11.7 µM (inactive) | – | – | – | – | – | – | – | – | –
COc1cc(C2c3cc4c(cc3[C@@H](Nc3ccc(N5CCOCC5)cc3)C3COC(=O)[C@H]23)OCO4)cc(OC)c1O (stereo not given in full) | – | – | – | 1.57 µM (inactive) | – | 1.41 µM (inactive) | 1.01 µM (active) | 0.571 µM (active) | 0.773 µM (active) | 2.3 µM (inactive) | 5.19 µM (inactive) | 3.96 µM (inactive) | 0.177 µM (active) | – | – | – | – | – | – | –
ClCc1nnc2n1-c1ccc(Cl)cc1SC2 | – | – | – | 4.67 µM (inactive) | – | 1.63 µM (inactive) | 4.03 µM (inactive) | 3.47 µM (inactive) | 2.55 µM (inactive) | 2.23 µM (inactive) | 3.15 µM (inactive) | 1.78 µM (inactive) | 4.2 µM (inactive) | – | – | – | – | – | – | –
COc1cc(C2c3cc4c(cc3[C@@H](Nc3cccc(C(C)=O)c3)C3COC(=O)[C@H]23)OCO4)cc(OC)c1O (stereo not given in full) | – | – | – | 1.66 µM (inactive) | – | 1.39 µM (inactive) | 0.236 µM (active) | 0.243 µM (active) | 0.478 µM (active) | 0.762 µM (active) | 0.838 µM (active) | 0.383 µM (active) | 0.0785 µM (active) | – | – | – | – | – | – | –
C/C([O-])=C(/c1nc(-c2ccc([N+](=O)[O-])o2)no1)[n+]1cc(C)ccc1C | – | – | – | 12.6 µM (inactive) | – | 3.57 µM (inactive) | 18.3 µM (inactive) | 4.99 µM (inactive) | > 100 µM (inactive) | 18.7 µM (inactive) | 17.8 µM (inactive) | 35 µM (inactive) | 4.02 µM (inactive) | – | – | – | – | – | – | –
O=C(O)c1ccccc1C(=O)c1ccco1 | > 100 µM (inactive) | > 100 µM (inactive) | > 100 µM (inactive) | > 100 µM (inactive) | > 100 µM (inactive) | > 100 µM (inactive) | > 100 µM (inactive) | > 100 µM (inactive) | > 100 µM (inactive) | > 100 µM (inactive) | > 100 µM (inactive) | – | – | – | – | – | – | – | – | –
O=C1C(Cl)=C(N2CCC[C@H]2CO)C(=O)c2c(O)ccc(O)c21 | 2.03 µM (inactive) | 0.592 µM (active) | 1.95 µM (inactive) | – | 2.54 µM (inactive) | 0.104 µM (active) | > 10 µM (inactive) | > 10 µM (inactive) | 1.72 µM (inactive) | 1.99 µM (inactive) | > 10 µM (inactive) | 2 µM (inactive) | 1.81 µM (inactive) | > 10 µM (inactive) | 2.64 µM (inactive) | 4.24 µM (inactive) | 4.38 µM (inactive) | 2.26 µM (inactive) | 1.86 µM (inactive) | 2.11 µM (inactive)
COc1cc2c(cc1OC)-c1c(cnn1C1OC(COC(C)=O)C(OC(C)=O)C(OC(C)=O)C1OC(C)=O)CC2 (stereo not given) | > 100 µM (inactive) | 10.5 µM (inactive) | > 100 µM (inactive) | > 100 µM (inactive) | > 100 µM (inactive) | 18.7 µM (inactive) | > 100 µM (inactive) | > 100 µM (inactive) | 48.1 µM (inactive) | – | 48.9 µM (inactive) | – | – | – | – | – | – | – | – | –
N/C(=N\O)N/N=C\c1cc([N+](=O)[O-])cc([N+](=O)[O-])c1O | – | – | – | 24.9 µM (inactive) | – | 12.5 µM (inactive) | > 23.2 µM (inactive) | 18.4 µM (inactive) | > 100 µM (inactive) | > 100 µM (inactive) | – | > 26 µM (inactive) | 19.1 µM (inactive) | – | – | – | – | – | – | –
COc1ccc(Sc2ccccc2N)cc1 | 56.8 µM (inactive) | 22.8 µM (inactive) | 35.8 µM (inactive) | 52.6 µM (inactive) | > 100 µM (inactive) | – | > 100 µM (inactive) | 29.6 µM (inactive) | 21.1 µM (inactive) | 25.5 µM (inactive) | 19.6 µM (inactive) | – | – | – | – | – | – | – | – | –
Nc1nn(CC(O)CO)c(=O)s1 (stereo not given) | > 100 µM (inactive) | > 100 µM (inactive) | > 100 µM (inactive) | > 100 µM (inactive) | > 100 µM (inactive) | – | > 100 µM (inactive) | > 100 µM (inactive) | – | > 100 µM (inactive) | 64.6 µM (inactive) | – | – | – | – | – | – | – | – | –
CCCCCCCCCCCC1=C(O)C(=O)C=C(O)C1=O [EMBELIN] | – | – | – | 7.43 µM (inactive) | – | 8.95 µM (inactive) | 5.75 µM (inactive) | 6.76 µM (inactive) | 4.09 µM (inactive) | 12.9 µM (inactive) | 6.31 µM (inactive) | 6.27 µM (inactive) | 7.64 µM (inactive) | – | – | – | – | – | – | –
